Some results are limits rather than exact numbers.

The target of the test is PRMT5/MEP50 (Homo sapiens (Human), UniProt O14744). The experiment in a line: PRMT5 Biochemical Assay (PRMT5/MEP50 enzyme assay on peptide substrate, 3H-SAM Flashplate). The source says: S-adenosylmethionine (SAM), S-adenosylhomocysteine (SAH), bicine, KCl, Tween20, dimethylsulfoxide (DMSO), bovine skin gelatin (BSG), and Tris(2-carboxyethyl)phosphine hydrochloride solution (TCEP) were purchased from Sigma-Aldrich at the highest level of purity possible. ^3H-SAM was purchase from American Radiolabeled Chemicals with a specific activity of 80 Ci/mmol. 384-well streptavidin Flashplates were purchased from PerkinElmer.
Sequence of PRMT5/MEP50 (O14744 other isoform, or with tags, fused parts or gaps): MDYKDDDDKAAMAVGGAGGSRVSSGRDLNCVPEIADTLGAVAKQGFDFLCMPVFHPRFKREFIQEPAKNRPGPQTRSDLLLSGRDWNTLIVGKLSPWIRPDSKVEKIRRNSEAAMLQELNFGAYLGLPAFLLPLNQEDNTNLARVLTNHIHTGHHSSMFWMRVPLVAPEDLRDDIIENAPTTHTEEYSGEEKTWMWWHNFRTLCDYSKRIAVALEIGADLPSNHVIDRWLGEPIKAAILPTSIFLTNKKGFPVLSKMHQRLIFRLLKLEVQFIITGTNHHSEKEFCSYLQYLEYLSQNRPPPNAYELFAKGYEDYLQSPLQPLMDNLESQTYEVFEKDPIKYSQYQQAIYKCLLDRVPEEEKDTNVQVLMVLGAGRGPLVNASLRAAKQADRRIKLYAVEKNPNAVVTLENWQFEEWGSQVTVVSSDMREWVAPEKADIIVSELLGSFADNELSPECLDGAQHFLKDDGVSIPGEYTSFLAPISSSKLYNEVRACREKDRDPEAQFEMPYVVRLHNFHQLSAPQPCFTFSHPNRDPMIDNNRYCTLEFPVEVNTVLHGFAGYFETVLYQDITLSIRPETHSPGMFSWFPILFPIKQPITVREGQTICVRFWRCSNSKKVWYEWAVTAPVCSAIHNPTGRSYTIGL
Sequence of PRMT5/MEP50 (Q9BQA1 other isoform, or with tags, fused parts or gaps partner): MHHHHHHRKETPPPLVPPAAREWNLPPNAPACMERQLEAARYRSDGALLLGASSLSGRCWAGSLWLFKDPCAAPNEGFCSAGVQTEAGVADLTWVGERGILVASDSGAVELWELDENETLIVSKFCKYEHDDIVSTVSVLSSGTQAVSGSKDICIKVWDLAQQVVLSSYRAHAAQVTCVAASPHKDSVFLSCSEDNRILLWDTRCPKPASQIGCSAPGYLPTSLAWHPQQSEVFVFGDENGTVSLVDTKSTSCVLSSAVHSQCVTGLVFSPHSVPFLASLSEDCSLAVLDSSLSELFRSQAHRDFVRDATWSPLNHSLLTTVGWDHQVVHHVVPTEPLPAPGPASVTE
Peptide representative of human histone H4 residues 1-15 was synthesized with a C-terminal linker-affinity tag motif and a C-terminal amide cap by 21st Century Biochemicals. The peptide was high high-performance liquid chromatography (HPLC) purified to greater than 95% purity and confirmed by liquid chromatography mass spectrometry (LC-MS). The sequence was Ac-[…][K-Biot]-amide (SEQ ID NO.:3).
Molecular Biology: Full-length human PRMT5 (NM_006109.3) transcript variant 1 clone was amplified from a fetal brain cDNA library, incorporating flanking 5′ sequence encoding a FLAG tag ([…]) (SEQ ID NO.:4) fused directly to Ala 2 of PRMT5. Full-length human MEP50 (NM_024102) clone was amplified from a human testis cDNA library incorporating a 5′ sequence encoding a 6-histidine tag (MHHHHHH) (SEQ ID NO.:5) fused directly to Arg 2 of MEP50. The amplified genes were sublconed into pENTR/D/TEV (Life Technologies) and subsequently transferred by Gateway™ attL×attR recombination to pDEST8 baculvirus expression vector (Life Technologies).
Recombinant baculovirus and Baculovirus-Infected Insect Cells (BIIC) were generated according to Bac-to-Bac kit instructions (Life Technologies) and Wasilko, 2006, respectively. Protein over-expression was accomplished by infecting exponentially growing Spodoptera frugiperda (SF9) cell culture at 1.2×10^6 cell/ml with a 5000 fold dilution of BIIC stock. Infections were carried out at 27° C. for 72 hours, harvested by centrifugation, and stored at −80° C. for purification.
Flag-PRMT5/6His-MeP50 was eluted with 300 mM Imidazole in the same buffer. The purity of recovered protein was 87%. Reference: Wasilko, D. J. and S. E. Lee: “TIPS: titerless infected-cells preservation and scale-up” Bioprocess J., 5 (2006), pp. 29-32.
General Procedure for PRMT5/MEP50 Enzyme Assays on Peptide Substrates.
The assays were all performed in a buffer consisting of 20 mM Bicine (pH=7.6), 1 mM TCEP, 0.005% BSG, and 0.002% Tween20, prepared on the day of use. Compounds in 100% DMSO (1 ul) were spotted into a polypropylene 384-well V-bottom plates (Greiner) using a Platemate Plus outfitted with a 384-channel head (Thermo Scientific). DMSO (1 ul) was added to Columns 11, 12, 23, 24, rows A-H for the maximum signal control and 1 ul of SAH, a known product and inhibitor of PRMT5/MEP50, was added to columns 11, 12, 23, 24, rows I-P for the minimum signal control. A cocktail (40 ul) containing the PRMT5/MEP50 enzyme and the peptide was added by Multidrop Combi (Thermo-Fisher). The compounds were allowed to incubate with PRMT5/MEP50 for 30 min at 25 degrees Celsius, then a cocktail (10 ul) containing ^3H-SAM was added to initiate the reaction (final volume=51 ul). The final concentrations of the components were as follows: PRMT5/MEP50 was 4 nM, ^3H-SAM was 75 nM, peptide was 40 nM, SAH in the minimum signal control wells was 100 uM, and the DMSO concentration was 1%. The assays were stopped by the addition of non-radioactive SAM (10 ul) to a final concentration of 600 uM, which dilutes the ^3H-SAM to a level where its incorporation into the peptide substrate is no longer detectable. 50 ul of the reaction in the 384-well polypropylene plate was then transferred to a 384-well Flashplate and the biotinylated peptides were allowed to bind to the streptavidin surface for at least 1 hour before being washed three times with 0.1% Tween20 in a Biotek ELx405 plate washer. […]
By IC50 is commonly meant the concentration at which inhibition is half-maximal. `O[C@H](COc1cccc(CNC2CCCC2)c1)CN1CCc2ccccc2C1` [Compound 22]: the IC50 was in the range of 101 to 1000 nM.

With `O[C@@H](COc1cccc(CNC2CCCC2)c1)CN1CCc2ccccc2C1` [Compound 23], the IC50 fell in the range of 1000 to 10000 nM.

For `COc1cc2c(cc1OC)CN(CC(O)COc1cccc(CNC3CCCC3)c1)CC2` (centres unmarked) [Compound 30], the IC50 was above 40000 nM.

As to `COc1ccc(Cn2nccc2-c2ccc(OC[C@H](O)CN3CCc4ccccc4C3)cc2)cc1` [Compound 37], the concentration for half-maximal inhibition (IC50) lay within 1000 to 10000 nM.

Consider `COc1ccc(Cn2nccc2-c2ccc(OC[C@@H](O)CN3CCc4ccccc4C3)cc2)cc1` [Compound 38], for which the IC50 was above 40000 nM.

As to `COc1ccc(Cn2ccc(-c3ccc(OC[C@H](O)CN4CCc5ccccc5C4)cc3)n2)cc1` [Compound 41], the IC50 fell in the range of 1000 to 10000 nM.

Take `COc1ccc(Cn2ccc(-c3ccc(OC[C@@H](O)CN4CCc5ccccc5C4)cc3)n2)cc1` [Compound 42]: the IC50 is 10000 to 40000 nM.

Consider `Cn1cnc2ccc(-c3cccc(OCC(O)CN4CCc5ccccc5C4)c3)cc21` (centres unmarked) [Compound 45, 1-(3,4-dihydroisoquinolin-2(1H)-yl)-3-(3-(1-methyl-1H-benzo[d]imidazol-6-yl)phenoxy)propan-2-ol], for which the half-maximal inhibitory concentration (IC50) was below 100 nM.

With `OC(COc1ccc(C2CCCNC2)cc1)CN1CCc2ccccc2C1` (centres unmarked) [Compound 47], the IC50 was below 100 nM.

Consider `CC1Cc2ccccc2CN1CC(O)COc1cccc(CNC2CCCC2)c1` (centres unmarked) [Compound 51], for which the IC50 was above 40000 nM.

Turning to `COc1cccc2c1CCN(CC(O)COc1cccc(CNC3CCCC3)c1)C2` (centres unmarked) [Compound 54], the half-maximal inhibitory concentration (IC50) was above 40000 nM.

`CC1CN(CC(O)COc2cccc(CNC3CCCC3)c2)Cc2ccccc21` (centres unmarked) [Compound 56]: the IC50 was above 40000 nM.

In the case of `CN(C)S(=O)(=O)c1cccc(-c2cccc(OCC(O)CN3CCc4ccccc4C3)c2)c1` (centres unmarked) [Compound 61], the IC50 was above 40000 nM.

For `OC(COc1cccc(-c2cccc3cccnc23)c1)CN1CCc2ccccc2C1` (centres unmarked) [Compound 65, 1-(3,4-dihydroisoquinolin-2(1H)-yl)-3-(3-(quinolin-8-yl)phenoxy)propan-2-ol], the half-maximal inhibitory concentration (IC50) is below 100 nM.

Regarding `Cn1cnc2ccc(-c3cccc(NCC(O)CN4CCc5ccccc5C4)c3)cc21` (centres unmarked) [Compound 102, 1-(3,4-dihydroisoquinolin-2(1H)-yl)-3-((3-(1-methyl-1H-benzo[d]imidazol-6-yl)phenyl)amino)propan-2-ol], the IC50 was below 100 nM.

On to `OC(COc1cccc(-c2ccc3ncn(Cc4ccccc4)c3c2)c1)CN1CCc2ccccc2C1` (centres unmarked) [Compound 105, 1-(3-(1-benzyl-1H-benzo[d]imidazol-6-yl)phenoxy)-3-(3,4-dihydroisoquinolin-2(1H)-yl)propan-2-ol], for which the IC50 was below 100 nM.

In the case of `Cn1ncc2ccc(-c3cccc(OCC(O)CN4CCc5ccccc5C4)c3)cc21` (centres unmarked) [Compound 106], the IC50 was below 100 nM.

For the compound `Cn1ncc2cc(-c3cccc(OCC(O)CN4CCc5ccccc5C4)c3)ccc21` (centres unmarked) [Compound 108], the half-inhibitory concentration (IC50) is below 100 nM.

On to `CN(CC(O)CN1CCc2ccccc2C1)c1cccc(CNC2CCOCC2)c1` (centres unmarked) [Compound 116], for which the IC50 was below 100 nM.

With `Cn1cnc2ccc(-c3ccnc(NCC(O)CN4CCc5ccccc5C4)c3)cc21` (centres unmarked) [Compound 118, 1-(3,4-Dihydroisoquinolin-2(1H)-yl)-3-((4-(1-methyl-1H-benzo[d]imidazol-6-yl)pyridin-2-yl)amino)propan-2-ol], the IC50 was below 100 nM.

As to `OC(COc1cccc(-c2ccc3ncsc3c2)c1)CN1CCc2ccccc2C1` (centres unmarked) [Compound 123, 1-(3-(benzo[d]thiazol-6-yl)phenoxy)-3-(3,4-dihydroisoquinolin-2(1H)-yl)propan-2-ol], the IC50 lay in the range of 101 to 1000 nM.

As for `Cn1ccc2cnc(-c3cccc(OCC(O)CN4CCc5ccccc5C4)c3)nc21` (centres unmarked) [Compound 141, 1-(3,4-dihydroisoquinolin-2(1H)-yl)-3-(3-(7-methyl-7H-pyrrolo[2,3-d]pyrimidin-2-yl)phenoxy)propan-2-ol], the half-maximal inhibitory concentration (IC50) was below 100 nM.

On to `Cn1cnc2ccc(-c3cccc(OCC(O)CN4CCc5ccccc5C4Cc4ccccc4)c3)cc21` (centres unmarked) [Compound 143], for which the concentration for half-maximal inhibition (IC50) is above 40000 nM.

On to `COc1cc2c(cc1OC)CN(CC(O)COc1cccc(-c3ccc4ncn(C)c4c3)c1)CC2` (centres unmarked) [Compound 146], for which the IC50 is above 40000 nM.

For `Cn1cnc2ccc(-c3cccc(OC[C@@H](O)CN4CCc5ccccc5C4)c3)cc21` [Compound 173], the IC50 was in the range of 101 to 1000 nM.

Consider `Cn1cnc2ccc(-c3cccc(OC[C@H](O)CN4CCc5ccccc5C4)c3)cc21` [Compound 174], for which the IC50 was below 100 nM.

Turning to `Cn1ccc2ccc(-c3cccc(OCC(O)CN4CCc5ccccc5C4)c3)nc21` (centres unmarked) [Compound 176, 1-(3,4-dihydroisoquinolin-2(1H)-yl)-3-(3-(1-methyl-1H-pyrrolo[2,3-b]pyridin-6-yl)phenoxy)propan-2-ol], the IC50 was below 100 nM.

On to `Cn1cnc2ccc(-c3cccc(OCC(O)CN4CCc5ccccc5C4COc4ccccc4)c3)cc21` (centres unmarked) [Compound 178], for which the IC50 is above 40000 nM.

Take `Cn1cnc2ccc(-c3cccc(OCC(O)CN4CCc5ccccc5C4)c3)nc21` (centres unmarked) [Compound 189, 1-(3,4-dihydroisoquinolin-2(1H)-yl)-3-(3-(3-methyl-3H-imidazo[4,5-b]pyridin-5-yl)phenoxy)propan-2-ol]: the IC50 was below 100 nM.

As to `CCOC(=O)C1c2ccccc2CCN1CC(O)COc1cccc(-c2ccc3ncn(C)c3c2)c1` (centres unmarked) [Compound 193], the IC50 is above 40000 nM.

On to `Cn1cnc2ccc(-c3cncc(NCC(O)CN4CCc5ccccc5C4)c3)cc21` (centres unmarked) [Compound 199], for which the IC50 is below 100 nM.

Turning to `Cn1cnc2ccc(-c3cccc(OCC(O)CN4CCc5ccccc5C4CC(N)=O)c3)cc21` (centres unmarked) [Compound 202], the IC50 was above 40000 nM.

With `OC(COc1cccc(-c2ccc3ncn(C4CCNC4)c3c2)c1)CN1CCc2ccccc2C1` (centres unmarked) [Compound 209, 1-(3,4-dihydroisoquinolin-2(1H)-yl)-3-(3-(1-(pyrrolidin-3-yl)-1H-benzo[d]imidazol-6-yl)phenoxy)propan-2-ol], the IC50 is below 100 nM.

As for `Cn1cc2ccc(-c3cccc(OCC(O)CN4CCc5ccccc5C4)c3)nc2n1` (centres unmarked) [Compound 210, 1-(3,4-dihydroisoquinolin-2(1H)-yl)-3-(3-(2-methyl-2H-pyrazolo[3,4-b]pyridin-6-yl)phenoxy)propan-2-ol], the IC50 was below 100 nM.

Consider `CN1CC(n2cnc3ccc(-c4cccc(OCC(O)CN5CCc6ccccc6C5)c4)cc32)C1` (centres unmarked) [Compound 218, 1-(3,4-dihydroisoquinolin-2(1H)-yl)-3-(3-(1-(1-methylazetidin-3-yl)-1H-benzo[d]imidazol-6-yl)phenoxy)propan-2-ol], for which the half-maximal inhibitory concentration (IC50) is below 100 nM.

With `CN1CCC(n2cnc3ccc(-c4cccc(OCC(O)CN5CCc6ccccc6C5)c4)cc32)C1` (centres unmarked) [Compound 219], the IC50 is below 100 nM.

As to `OC(COc1cccc(-c2ccc3ncn(C4CCNCC4)c3c2)c1)CN1CCc2ccccc2C1` (centres unmarked) [Compound 220], the IC50 is below 100 nM.

With `CN1CCC(n2cnc3ccc(-c4cccc(OCC(O)CN5CCc6ccccc6C5)c4)cc32)CC1` (centres unmarked) [Compound 221], the IC50 is below 100 nM.

Take `OC(COc1cccc(-c2cccc3[nH]cnc23)c1)CN1CCc2ccccc2C1` (centres unmarked) [Compound 223, 1-(3-(1H-benzo[d]imidazol-4-yl)phenoxy)-3-(3,4-dihydroisoquinolin-2(1H)-yl)propan-2-ol]: the half-maximal inhibitory concentration (IC50) was below 100 nM.

With `Cn1cnc2ccc(-c3cccc(OCC(O)CN4CCc5ccccc5C4=O)c3)cc21` (centres unmarked) [Compound 225], the IC50 is above 40000 nM.

Take `Cn1ncc2ccc(-c3ccnc(NCC(O)CN4CCc5ccccc5C4)c3)cc21` (centres unmarked) [Compound 226]: the IC50 was below 100 nM.

Source of the values: patent publication US9777008B2, “PRMT5 inhibitors and uses thereof” (Epizyme, Inc., priority 2012, dated 2017).
